The text below walks through data of patent publication US5610174A, “Use of α1A -selective adrenoceptor agonists for the treatment of urinary incontinence” (priority 1995, dated 1997).

In assay [1] the target is T1, dog BN, female (α1-adrenoceptor) (Canis lupus, UniProt A0A8I3NK63).
T1 sequence (A0A8I3NK63 1-466): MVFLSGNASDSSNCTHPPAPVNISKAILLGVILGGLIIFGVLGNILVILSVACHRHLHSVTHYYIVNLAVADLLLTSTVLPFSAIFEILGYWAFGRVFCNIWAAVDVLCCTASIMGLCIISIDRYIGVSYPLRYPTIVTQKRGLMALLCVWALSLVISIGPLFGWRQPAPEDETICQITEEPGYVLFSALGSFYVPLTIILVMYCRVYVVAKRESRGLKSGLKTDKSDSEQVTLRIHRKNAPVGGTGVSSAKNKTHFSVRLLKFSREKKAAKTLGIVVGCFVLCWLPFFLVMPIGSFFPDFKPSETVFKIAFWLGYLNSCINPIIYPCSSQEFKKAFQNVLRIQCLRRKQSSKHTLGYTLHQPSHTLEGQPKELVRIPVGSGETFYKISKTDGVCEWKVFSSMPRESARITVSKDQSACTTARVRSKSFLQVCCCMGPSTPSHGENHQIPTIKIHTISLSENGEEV
Briefly: Contractile study in isolated female dog bladder neck. Conditions: for pEC50 Bladder Neck: agonist contraction; for pEC50 Bladder Neck / sensitivity of the contraction to prazosin, bladder neck: female dog bladder neck. An excerpt:
In addition, similar studies were done using bladder neck tissue from female dogs. In order to identify the specific receptor subtype in each tissue, the pharmacological profile was compared to the profiles for these same drugs at the cloned human α1A, α1B, or α1C subtypes.
Tissue samples from the proximal urethra of male humans and male and female rabbits, as well as tissue samples from both the proximal urethra and bladder neck of male and female dogs were cut into transverse strips (3×10 mm) and suspended under 0.5 g tension in Krebs' physiological buffer at 37° C. To determine agonist potency (pEC50 )and antagonist affinity constants (pKB), concentration-effect curves to the non-selective agonist phenylepherine were constructed in the absence and in the presence of increasing concentrations of the antagonist. Up to four sequential curves were constructed in each tissue. Antagonists were allowed to equilibrate for 1h before each concentration-effect curve, and the drugs were completely washed out in between successive curves. In each experiment, one tissue served as a "time control", in which no antagonist was added so that changes in tissue sensitivity could be assessed as a function of time. […] In instances in which a single concentration of antagonist was used, pKB values were determined by the equation: […], where CR is defined as the ratio of the agonist EC50 in the presence of the antagonist to that in the absence of the antagonist.

Assay [2] addresses T2, human histamine H1 receptor (Homo sapiens, UniProt P35367).
T2 construct: expressed in transfected cells; host or cells: COS-7 (plasmid pcEXV-H1, ATCC 75346)
Briefly: Radioligand binding at cloned human histamine H1. The following applies: [3H]mepyramine; for Ki: read-out: pKi H1 (converted). As for the experimental part: Human Histamine H1 Receptor
The coding sequence of the human histamine H1 receptor, homologous to the bovine H1 receptor, was obtained from a human hippocampal cDNA library, and was cloned into the eukaryotic expression vector pCEXV-3. The plasmid DNA for the H1 receptor is designated pcEXV-H1, and was deposited on Nov. 6, 1992 under ATCC Accession No. 75346. This construct was transfected into COS-7 cells by the DEAE-dextran method. Cells were harvested after 72 hours and lysed by sonication in 5 mM Tris-HCl, 5 mM EDTA, pH 7.5. The cell lysates were centrifuged at 1000 rpm for 5 min at 4° C., and the supernatant was centrifuged at 30,000×g for 20 min. at 4° C. The pellet was suspended in 37.8 mM NaHPO4, 12.2 mM KH2 PO4, pH 7.5. […]. The bound radioligand was separated by filtration through GF/B filters using a cell harvester.

The target of assay [3] is T3, human dopamine D1 receptor (Homo sapiens, UniProt P21728).
T3 construct: expressed in transfected cells
Briefly: Radioligand binding at human dopamine D1. Conditions: for Ki: read-out: pKi D1 (converted). As for the experimental part: Other Dopamine receptors were prepared by known methods. (D1 : Dearry et al., Nature, 347, 72, (1990), deposited with the European Molecular Biological Laboratory (EMBL) Genbank as X55760; D3 : Sokoloff, P. et al., Nature, 347, 146 (1990), deposited with the European Molecular Biological Laboratory (EMBL) Genbank as X53944; D5 : Sunahara, R. K., et al., Nature, 350, 614 (1991), deposited with EMBL Genbank as X58454-HU HD 5DR).

Assay [4] has as its target T4, human 5-HT1A receptor (Homo sapiens, UniProt P08908).
T4 construct: expressed in transfected cells; host or cells: COS-7, transient (a cell line 5-HT1A-3, ATCC CRL 11889, is also named)
T4 sequence (P08908 1-422): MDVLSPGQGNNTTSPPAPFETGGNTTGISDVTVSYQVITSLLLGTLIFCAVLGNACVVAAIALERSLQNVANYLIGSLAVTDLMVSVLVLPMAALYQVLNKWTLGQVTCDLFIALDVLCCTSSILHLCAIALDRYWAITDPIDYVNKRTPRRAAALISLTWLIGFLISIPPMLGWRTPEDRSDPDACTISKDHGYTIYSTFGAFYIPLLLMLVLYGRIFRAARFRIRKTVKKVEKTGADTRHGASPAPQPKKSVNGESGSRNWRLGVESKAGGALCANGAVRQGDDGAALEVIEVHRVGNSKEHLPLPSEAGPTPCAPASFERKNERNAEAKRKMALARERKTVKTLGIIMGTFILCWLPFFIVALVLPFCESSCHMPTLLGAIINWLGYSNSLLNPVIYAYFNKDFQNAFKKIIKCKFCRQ
Briefly: Radioligand binding at human 5-HT1A. As for the experimental part:
The cDNA corresponding to the 5-HT1A receptor open reading frames and variable non-coding 5'- and 3'-regions, was cloned into the eukaryotic expression vector pCEXV-3. These constructs were transfected transiently into COS-7 cells by the DEAE-dextran method, and harvested after 72 hours. Radioligand binding assays were performed as described above for the 5-HT2 receptor, except that [3H]-8-OH-DPAT was used as the radioligand and nonspecific binding was determined by the addition of 10 μM mianserin.

Where two headings read alike, the source gives them in different places.

T2 sequence (P35367 whole entry): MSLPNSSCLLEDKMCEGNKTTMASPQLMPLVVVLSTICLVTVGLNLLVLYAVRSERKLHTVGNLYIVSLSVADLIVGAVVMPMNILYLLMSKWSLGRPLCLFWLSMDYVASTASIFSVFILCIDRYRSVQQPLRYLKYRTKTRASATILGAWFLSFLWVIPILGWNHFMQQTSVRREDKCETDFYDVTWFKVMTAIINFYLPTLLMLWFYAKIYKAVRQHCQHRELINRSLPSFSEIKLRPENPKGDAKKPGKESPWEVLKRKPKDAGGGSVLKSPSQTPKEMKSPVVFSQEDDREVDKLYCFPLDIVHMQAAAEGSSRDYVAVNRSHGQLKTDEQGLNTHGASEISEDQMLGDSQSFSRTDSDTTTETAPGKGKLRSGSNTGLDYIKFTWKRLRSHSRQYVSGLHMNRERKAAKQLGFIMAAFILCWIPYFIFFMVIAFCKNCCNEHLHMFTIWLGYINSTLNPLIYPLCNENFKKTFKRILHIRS
T3 sequence (P21728 whole entry): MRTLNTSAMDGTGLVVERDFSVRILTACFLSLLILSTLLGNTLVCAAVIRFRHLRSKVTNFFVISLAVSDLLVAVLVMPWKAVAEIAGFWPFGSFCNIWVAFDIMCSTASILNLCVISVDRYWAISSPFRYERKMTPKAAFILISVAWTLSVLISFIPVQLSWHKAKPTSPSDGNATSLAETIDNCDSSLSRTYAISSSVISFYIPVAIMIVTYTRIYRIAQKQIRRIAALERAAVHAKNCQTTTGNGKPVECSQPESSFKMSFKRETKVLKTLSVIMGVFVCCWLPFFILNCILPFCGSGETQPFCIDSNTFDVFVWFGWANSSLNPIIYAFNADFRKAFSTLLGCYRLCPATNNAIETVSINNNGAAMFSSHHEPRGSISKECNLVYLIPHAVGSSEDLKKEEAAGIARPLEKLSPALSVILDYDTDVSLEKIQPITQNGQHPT

With `CS(=O)(=O)Nc1c(O)ccc2c1CCCC2C1=NCCN1` (racemic) [Compound A-61603, (±)-N-[5-(4,5-Dihydro-1H-imidazol-2-yl)-2-hydroxy-5,6,7,8-tetra-hydronaphthalen-1-yl]methanesulfonamide], in assay [1], the “pEC50 Bladder Neck” value was 6.8. Besides, the “sensitivity of the contraction to prazosin, bladder neck” value in assay [1] is “highly sensitive to prazosin”. The Ki is 50.1 µM in assay [2]; 20 µM in assay [3]; 3.98 µM in assay [4] ([3H]-8-OH-DPAT, read-out: pKi 5-HT1A (converted)).

Consider `COc1ccc(SC)c2c1C[C@@H]1[C@@H](C2)OCCN1C` (relative stereo) [SDZ NVI-085, (±)-trans-4-Methyl-6-methoxy-9-thiomethoxy-3,4,4a, 5,10,10a-hexahydro-2H-naphtho[2,3-b][1,4]oxazine], for which the Ki in assay [2] was 5.01 µM; in assay [3], 7.94 µM; in assay [4] it was 0.0794 µM.

In the case of `COc1ccccc1N1CCN(CCCNc2c(C)c(=O)n(C)c(=O)n2C)CC1` [Compound 5-MU], the “pKB Dog BN Female” value in assay [1] (versus phenylephrine-induced contraction) was 8.8.

`CNCCc1ccc(O)c(NS(C)(=O)=O)c1` [SK&F 102652]: in assay [1], the “pEC50 Bladder Neck” value is on record as 5.7 and the “sensitivity of the contraction to prazosin, bladder neck” value was “highly sensitive to prazosin”. Besides, in assay [2], the “pKi H1” value came out at 4.3. Besides, the “pKi D1” value in assay [3] was 5.0. In addition, in assay [4] ([3H]-8-OH-DPAT), the “pKi 5-HT1A” value is given as 5.8.
